Results reported in patent US20060287383A1, “Substance exhibiting antidepressant property” (priority 2003, published 2006).

Legend:
white outbred male rats = experiment: reserpine depression method according to Bernardi; format: in vivo; settings: for reduction of the diarrhea intensity / reduction of the intensity of ptosis: versus reserpine; for orientation and motion activity: reserpinized rats; for Diarrhea / Ptosis: 4-point scale; for Number of pulses in activity meter: three minutes, Varimex
Text: The method of reserpine depression according to Bernardi (Bernardi D., Paglialunga S., Jori A. Peripheral and central components in the hyperthermic effect of desipramine in rezerpinized rats//J. Pharm. Pharmacol., 1968, vol. 20, p. 204-209) is one of the basic models for assessing antidepressants in studies of new pharmaceuticals. The studies have been conducted with white outbred male rats having the weight from 200 to 240 grams. Reserpine has been introduced intraperitoneally, as a single dose of 2.5 mg/kg 2 hours before the introduction of phenotropyl (intraperitoneally, single doses of 25, 50, 100 and 200 mg/kg) and 3 hours before starting the study. The animals from the control group have received intraperitoneally distilled water only in the same volumes as the animals from the experimental groups. The antidepressant activity of phenotropyl has been assessed by its effect on sedation (suppression of the orientation and motion activity), intensity of ptosis and diarrhea, which have been caused by reserpine in the rats.
The orientation and motion activity of the animals has been studied for three minutes in a special activity meter (Varimex). The intensity of ptosis and diarrhea has been assessed on the standard 4-point scale (Mashkovsky M. D., Andreeva N. I., Polezhaeva A. I. Pharmacology of Antidepressants. Moscow, Medicine Publishers, 1983, p. 194-199).

[1] = system: patients having depressive illnesses; experiment: clinical study, Hamilton rating scale for depressive illness; format: in vivo, human
Protocol: The Hamilton rating scale for primary depressive illness (Hamilton M. Development of a rating scale for primary depressive illness//Br J Soc Clin Psychol. 1967 December;6(4):278-96) is one of the most widely used scales for assessing depression in the clinical practice.
The material for clinical studies has comprised two homogenous groups of patients having depressive illnesses (40 persons) aged 20-42, out of which 20 patients have taken amitriptyline in the daily dose of 75 mg (25 mg three times a day), and 20 patients have taken phenotropyl in the daily dose of 100 mg as a single dose in the morning time. For a comparative study of the medications antidepressant activity the patients have been enlisted for the study according to the following criteria: the informed consent is available, a light or moderate depressive episode (F32.0 ? F32.1 according to MCB-10) is present, the total score under the Hamilton rating scale is not lower than 18, no contraindications to taking amitriptyline and phenotropyl. The patients have been relatively uniformly assigned to the said groups according to meaningful factors, such as sex and age, time for which the condition exists and syndrome characteristics. The condition existence time varied from 1 to 2 years. The therapy efficiency has been assessed on the basis of a degree of reduction of the total score under the Hamilton scale, namely: full effect—reduction by more than 50%; partial reduction—from 25 to 50%; no effect—reduction by less than 25%. The condition of the patients has been assessed during the background studies and at each 7th day of the therapy for the whole 6 weeks of the therapy. In total, seven examinations have been carried out. The comparative data on the general efficiency pf the medications, as given in Table 5, evidence a rather quick reduction of the depressive illness psychopathological symptoms in the process of administering phenotropyl and amitriptyline. However, the antidepressant effect of phenotropyl has been more pronounced on the 7th and 14th days of the therapy. The full reduction has been attained in 25% and 40% of the patients, respectively. […] From the 28th day of the therapy the number of the patients experiencing the maximum effect has not been changed either on the 35th or the 42nd days of the therapy. Out of 20% of the patients experiencing a partial reduction of the depressive symptoms, 15% have been patients with the reduction from 25% to 50%, and 5%—patients with the reduction by less than 25%.

[2] = reserpine 2.5 mg/kg + phenotropyl 25 mg/kg intraperitoneally
[3] = reserpine 2.5 mg/kg + phenotropyl 50 mg/kg intraperitoneally
[4] = reserpine 2.5 mg/kg + phenotropyl 100 mg/kg intraperitoneally
[5] = reserpine 2.5 mg/kg + phenotropyl 200 mg/kg intraperitoneally

## NC(=O)CN1CC(c2ccccc2)CC1=O (centres unmarked) [Phenotropyl, N-carbamoyl-methyl-4-phenyl-2-pyrrolidone]
White outbred male rats; phenotropyl 50 mg/kg
  reduction of the diarrhea intensity: 1.7 times
  reduction of the intensity of ptosis: 1.4 times
White outbred male rats; phenotropyl 100 mg/kg
  reduction of the diarrhea intensity: 2.4 times
White outbred male rats; phenotropyl 200 mg/kg
  reduction of the diarrhea intensity: 2.2 times
White outbred male rats; phenotropyl 100 and 200 mg/kg
  reduction of the intensity of ptosis: 1.8 times
White outbred male rats; phenotropyl doses of 25 and 50 mg/kg
  orientation and motion activity: increased
White outbred male rats; phenotropyl doses of 100 and 200 mg/kg
  orientation and motion activity: reliably corresponds to the control level
White outbred male rats; [2]
  Diarrhea: 2.0 ± 0.1 points
  Ptosis: 3.0 ± 0.2 points
  Number of pulses in activity meter: 20.3 ± 1.4
White outbred male rats; [3]
  Diarrhea: 1.4 ± 0.2 points
  Ptosis: 2.5 ± 0.2 points
  Number of pulses in activity meter: 22.8 ± 1.2
White outbred male rats; [4]
  Diarrhea: 1.0 ± 0.2 points
  Ptosis: 2.0 ± 0.2 points
  Number of pulses in activity meter: 30.6 ± 2.4
White outbred male rats; [5]
  Diarrhea: 1.1 ± 0.2 points
  Ptosis: 2.0 ± 0.1 points
  Number of pulses in activity meter: 33.9 ± 3.2
[1]; 100 mg daily, 6 weeks of therapy
  sedative and cholinergic effects: no cases of sedative and cholinergic effects have been recorded
[1]; 100 mg daily, 21st and 28th days of the therapy
  time at which full reduction is attained in 70% and 80% of the patients, compared with amitriptyline: two weeks earlier than for the amitriptyline therapy
[1]; 7th therapy day, 100 mg daily
  patients (%) with reduction of total Hamilton score 25-49: 25%
  patients (%) with reduction of total Hamilton score <25: 75%
  patients (%) with reduction of total Hamilton score ≧50: 0%
  patients (n) with reduction of total Hamilton score 25-49: 5
  patients (n) with reduction of total Hamilton score <25: 15
  patients (n) with reduction of total Hamilton score ≧50: 0
[1]; 7th therapy day, 100 mg daily, listed as phenotropyl
  patients (%) with reduction of total Hamilton score ≧50: 25%
[1]; 14th therapy day, 100 mg daily
  patients (%) with reduction of total Hamilton score 25-49: 30%
  patients (%) with reduction of total Hamilton score <25: 30%
  patients (%) with reduction of total Hamilton score ≧50: 40%
  patients (n) with reduction of total Hamilton score 25-49: 6
  patients (n) with reduction of total Hamilton score <25: 6
  patients (n) with reduction of total Hamilton score ≧50: 8
[1]; 21st therapy day, 100 mg daily
  patients (%) with reduction of total Hamilton score 25-49: 10%
  patients (%) with reduction of total Hamilton score <25: 20%
  patients (%) with reduction of total Hamilton score ≧50: 70%
  patients (n) with reduction of total Hamilton score 25-49: 2
  patients (n) with reduction of total Hamilton score <25: 4
  patients (n) with reduction of total Hamilton score ≧50: 14
[1]; 28th therapy day, 100 mg daily
  patients (%) with reduction of total Hamilton score 25-49: 15%
  patients (%) with reduction of total Hamilton score <25: 5%
  patients (%) with reduction of total Hamilton score ≧50: 80%
  patients (n) with reduction of total Hamilton score 25-49: 3
  patients (n) with reduction of total Hamilton score <25: 1
  patients (n) with reduction of total Hamilton score ≧50: 16
[1]; 35th therapy day, 100 mg daily
  patients (%) with reduction of total Hamilton score 25-49: 15%
  patients (%) with reduction of total Hamilton score <25: 5%
  patients (%) with reduction of total Hamilton score ≧50: 80%
  patients (n) with reduction of total Hamilton score 25-49: 3
  patients (n) with reduction of total Hamilton score <25: 1
  patients (n) with reduction of total Hamilton score ≧50: 16
[1]; 42nd therapy day, 100 mg daily
  patients (%) with reduction of total Hamilton score 25-49: 15%
  patients (%) with reduction of total Hamilton score <25: 5%
  patients (%) with reduction of total Hamilton score ≧50: 80%
  patients (n) with reduction of total Hamilton score 25-49: 3
  patients (n) with reduction of total Hamilton score <25: 1
  patients (n) with reduction of total Hamilton score ≧50: 16
[1]; course administration
  tolerance and withdrawal syndrome: does not induce tolerance and the withdrawal syndrome
